The record followed here is US9399759B2, “Method for producing neurospheres” (Keio University, priority 2008, dated 2016).

Experiment [1] deals with dedifferentiation factor-introduced fibroblasts. In words: Effect of cell death inhibitors on induction of differentiation into mouse neurospheres (Example 2). The experiment is classed as cell-based. The note with it: Day 20 of the culture, FIG. 4A. On the procedure: (§1) The dedifferentiation factor-introduced fibroblasts cultured as above were dissociated by washing with 0.25% trypsin EDTA, resuspended in 10 ml of DMEM/F-12 serum-free medium (1:1, Invitrogen; containing 0.6% D-glucose, 5 mM HEPES, 3 mM NaHCO3, 2 mM glutamine, 25 ug/ml insulin, 100 ug/ml transferrin, 20 nM progesterone, 60 uM putrescine and 30 nM sodium selenate) supplemented with LIF (recombinant human LIF; Chemi-Con, 100 U/ml) and FGF (PeproTech, 20 ng/ml) at the density of 50 cells/ul, seeded in bacterial plastic culture dishes, and cultured in suspension under the conditions of 37° C. and 5% CO2 with exchanging the culture media every 14 days. On Day 3 and Day 20 during the suspension culture, the states of the cells were observed.
In order to examine the improvement of the efficiency for the induction of differentiation into neurospheres by cell death inhibitors of N-acetyl-L-cysteine (NAC) and 8-chlorophenylthio (pCPT-cAMP), a membrane-permeable analog of cAMP, media supplemented with either or both of 1 mM of NAC(Sigma) and 100 uM of pCPT-cAMP (Sigma) were used in the suspension culture as described in Example 1. Other procedures were followed in the same way as described in Example 1, and numbers of neurospheres on Day 20 of the culture were counted.

The next experiment concerns human fibroblasts. In words: Effect of LIF, cAMP and Y27632 on number of human neurospheres formed (Example 2). The experiment is classed as cell-based. The following applies: media with cAMP in place of or in addition to LIF, or cAMP, FIG. 4B. On the procedure: as §1
In the case of human fibroblasts, the culture media were supplemented with cAMP in place of or in addition to LIF or with cAMP, LIF and a ROCK inhibitor Y27632, and the number of the neurospheres obtained from 250000 cells was counted.

As to `CC(=O)N[C@@H](CS)C(=O)O` [NAC, N-acetyl-L-cysteine], the “number of neurospheres as compared to the Control Group” value in experiment [1] (only NAC added, 1 mM) is reported as “no difference was observed”.

As for `C[C@@H](N)[C@H]1CC[C@H](C(=O)Nc2ccncc2)CC1` [Y27632], the “effect on neurosphere formation (number of neurospheres obtained from 250000 cells)” value (from here on “effect on neurosphere formation”) with human fibroblasts is on record as “no effect”.

As to `Nc1ncnc2c1nc(Sc1ccc(Cl)cc1)n2[C@@H]1O[C@@H]2COP(=O)([O-])O[C@H]2[C@H]1O.[Na+]` [pCPT-cAMP, 8-chlorophenylthio (pCPT-cAMP)], the “increase of number of neurospheres per 10 ml of the medium as compared to Control Group” value in experiment [1] (only pCPT-cAMP added, 100 uM, adult mouse fibroblasts) is “over 100 fold”. Also, in the experiment with human fibroblasts, the “effect on neurosphere formation” value is on record as “additive effect”.

With “LIF: recombinant human LIF; Chemi-Con; growth factor added to the medium”, the “effect on neurosphere formation” value with human fibroblasts is “additive effect”.
